How the values were obtained:
in vivo [1] = conditions: rat
in vivo [2] = conditions: dog
in vivo [3] = conditions: rhesus monkey
in vivo [4] = conditions: rat, iv, 1 mg/kg
in vivo [5] = conditions: dog, iv, 0.25 mg/kg
in vivo [6] = conditions: rhesus monkey, iv, 1 mg/kg
in vivo [7] = conditions: rat, plasma
in vivo [8] = conditions: dog, plasma
in vivo [9] = conditions: rhesus monkey, plasma
in vivo [10] = conditions: rat, po, 2 mg/kg
in vivo [11] = conditions: dog, po, 2 mg/kg
in vivo [12] = conditions: rhesus monkey, po, 2 mg/kg

With `Cc1nnc(-c2ccc(F)c(-c3c(=O)ccn4nc(Oc5ccc(F)cc5F)ccc34)c2)o1` the half-life (in vivo [1]) was 264 min, the half-life (in vivo [2]) was 270 min and the half-life (in vivo [3]) was 414 min. It also gave a clearance (in vivo [4]) of 2 mL/min/kg, a clearance (in vivo [5]) of 2.8 mL/min/kg and a clearance (in vivo [6]) of 2 mL/min/kg. It also gave an AUC (in vivo [7]) of 20 µM·h, an AUC (in vivo [8]) of 2.1 µM·h and an AUC (in vivo [9]) of 5.6 µM·h. For the same compound, the bioavailability (in vivo [10]) was 93%, the bioavailability (in vivo [11]) was 15% and the bioavailability (in vivo [12]) was 31%.

From ChEMBL document CHEMBL2086361, “Synthesis and biological activity of pyridopyridazin-6-one p38α MAP kinase inhibitors. Part 2” (Bioorg Med Chem Lett, 2012)
